In patent publication EP1030659B1 (Warner-Lambert Company LLC, priority 1997, dated 1999):
Where two headings read alike, the source gives them in different places.

What was measured:
Male Swiss-Webster mice [1] = experiment: Locomotor stimulant effects (horizontal locomotor activity); format: in vivo; conditions: i.p.; for ED50: Mus musculus, ip, dose resulting in ½ the maximal stimulant effect, read-out: Stimulation Potency (ED50); for locomotor stimulant effects, time course (in words): 2-hour session; for Stimulation Efficacy: ratio of the maximal stimulant effect of the test compound to the maximal effect of (+)-amphetamine
β2-receptors = molecular target: T1, β2-receptors (Canis lupus familiaris, UniProt P54833); experiment: Beta-2 binding, 125iodocyanopindolol (ICYP), canine lung membranes; design: species or system mongrel dogs
T1 construct: The lungs of mongrel dogs were separated from cartilaginous airways and major blood vessels; from tissue; host or cells: mongrel dog lung membranes

Male Swiss-Webster mice [2] = experiment: H1 antihistamine (triprolidine) interaction studies, locomotor activity; conditions: for interaction with triprolidine pretreatment (central nervous system stimulation, horizontal movement): pretreatment with 0.01, 0.1, or 1.0 mg/kg triprolidine 20 minutes before the sympathomimetic
α1-receptors = experiment: Alpha-1 binding, 3H-prazocin, canine lung membranes; design: species or system mongrel dogs; conditions: for Ki: Ki = IC50 / 1 + I/Kd, Kd from saturation analysis, unit inferred
α2-receptors = experiment: Alpha-2 binding, p-125iodoclonidine, canine brain (frontal cortex) membranes; design: species or system mongrel dogs; conditions: for Ki: Ki = IC50 / 1 + I/Kd, Kd from saturation analysis, unit inferred; for IC50: inhibition of 50% of specific p-iodoclonidine binding, mean of several test samples; for Kd: canine cerebral cortex membranes
Experimental: • PULMONARY ALPHA-1 AND BETA-2 RECEPTORS. The lungs of mongrel dogs were separated from cartilaginous airways and major blood vessels, weighed, chopped and placed into 10 volumes of ice-cold buffered sucrose (50 mM Tris-HCl, pH 7.4, 1 mM EGTA, 0.32 M sucrose). The tissue was then homogenized in a type PT10/35, size 89/PTA 20S, Polytron tissue homogenizer (Kinematica, Westbury, NY). The homogenate was filtered through two layers of cheesecloth, and the filtrate was dounced three times using a 55 ml Con-Torque Potter homogenizer (Eberbach Corporation, Ann Arbor, Ml). […] The supematant was re-centrifuged at 30,000 x g for 30 minutes at 4°C and the resulting pellet was washed and resuspended in 10 volumes of Tris buffer (50 mM Tris HCL, pH 7.4, 1 mM EGTA) and incubated at 37°C for 30 minutes in a shaking water bath. The suspension was centrifuged at 4°C at 30,000 x g for 30 minutes and the resulting pellet washed in 10 volumes of Tris buffer for a total of three additional centrifugations and washes. […] Protein concentration was determined by the Lowry method and the final suspension was adjusted to 10 mg of protein/ml, aliquoted and stored at -90°C. Particulates were also prepared for β2 receptors using the identical procedure except the final protein concentration was adjusted to 0.1 mg/ml. • BRAIN ALPHA-2 RECEPTORS: Membranes of mongrel dogs were harvested from the canine frontal cortex and prepared as described above with respect to the lungs, except that the final membrane protein concentration was adjusted to 0.5 mg/ml.
Nonspecific binding was determined for each concentration point in separate incubations using 10 µM phentolamine. Each experimental point was determined in triplicate. […] All binding assay incubations were terminated by rapid dilution with 2 ml of ice-cold wash buffer (50 mM Tris-HCl, pH 7.4) and filtration through FP-100 Whatman GF/B fired filters (Biomedical Research & Development Lab, Gaithersburg, MD) using a Brandel receptor-binding harvester. The filters were washed twice more with 4 ml of wash buffer and then added to 6 ml Cytoscint (ICN, Costa Mesa CA) for liquid scintillation counting (Barnes et al., 23 MOL. PHARMACOL. 570-75 (1983)). […] Nonspecific binding was determined in separate incubations in the presence of 10 µM phentolamine. The final concentration of p-iodoclonidine was 44-45 pM in competition studies and between 50 pM and 10 nM in saturation experiments. Bound and free p-^125 iodoclonidine were separated and the bound quantitated as described below for the ICYP assays. […] Nonspecific binding was determined in separate incubations in the presence of 2 µM d,I-propranolol. Each experimental point was determined in triplicate. […] Incubations were terminated as described above for the α1 assays. Filters were placed into polyethylene tubes and the bound ligand was determined by gamma spectrometry(Sano et al., 52 LIFE SCIENCES 1063-70 (1993)).
All data were analyzed with the aid of microcomputer nonlinear curve fitting programs (PRISM 2.0, Graphpad Software, San Diego CA).
The receptors resident in each of the three membrane preparations were evaluated by standard saturation analysis following the addition of increasing concentrations of the appropriate radioligand.
The radioligand added for subsequent α2-displacement assays was adjusted to evaluate only the high affinity receptor. Contributions from p-iodoclonidine binding to imidazoline receptors in the α2- displacement assay was evaluated with epinephrine.

[3] = Dosage required to raise mean arterial pressure (MAP) by 10% in dogs; format: in vivo; conditions: experimentally determined
Experimental: (§1) Nasal airway pressure was measured using a Validyne pressure transducer (Validyne Engineering, Northridge, CA) with a 2.25 cm H2O range membrane connected to a multipen recorder (Grass Instruments, Quincy, MA). Air was passed through an in-line direct measure flow meter (Gilmont Instruments, Barrington, IL) connected to the nasal opening cannula. Pressure was measured in the line with a constant flow rate (150 ml/min) of air. Drugs were directly injected into the jugular vein using a 30 gauge needle. All injections were of a constant 0.1 ml volume. In the congestion challenged groups congestion was achieved by an intranasal administration of histamine (50 mM, 0.02 ml/nostril). The histamine was expelled after 2 minutes with a short nasal cannula airflow and subsequent enantiomeric drug doses were directly injected into the jugular vein. The dosage chosen for each drug was the amount needed to increase the mean arterial pressure (MAP) of the animal by 10%; this dosage served as the "100%" dose for the initial nasal airway studies. […] The dosage required for rats was calculated by proportionately adjusting the experimentally determined dog dosage to account for the lesser weight of the rats.

[4] = Rat dosage calculated from the dog dosage that raises MAP by 10%; format: in vivo; conditions: calculated from the dog dosage by proportionately decreasing for the lesser weight of the rat; absolute dosage
Experimental: as §1

[5] = Nasal airway pressure (decongestant activity) in normal and histamine-challenged rats; format: in vivo, Sprague Dawley rats; conditions: for Mean Decrease in Nasal Airway Pressure / effect on normal airway decongestion (in words): rats; for Mean Decrease in Nasal Airway Pressure: mean ± standard error; for effect on normal airway decongestion (in words): 75% dose; for Post Drug nasal airway pressure: 100% dose into the jugular vein; for %Change in nasal airway pressure: 100% dose
[6] = Mean arterial blood pressure after the 75% dose in rats
[7] = 5% of the dose that increased canine resting mean arterial pressure 10%
[8] = 10% of the dose that increased canine resting mean arterial pressure 10%
[9] = 25% of the dose that increased canine resting mean arterial pressure 10%
[10] = 50% of the dose that increased canine resting mean arterial pressure 10%
[11] = histamine-challenged rats (50 mM, 0.02 ml/nostril)
[12] = histamine-challenged rats, relative to post-histamine level
[13] = non-histamine-challenged rats, relative to control

T1 sequence (P54833 whole entry): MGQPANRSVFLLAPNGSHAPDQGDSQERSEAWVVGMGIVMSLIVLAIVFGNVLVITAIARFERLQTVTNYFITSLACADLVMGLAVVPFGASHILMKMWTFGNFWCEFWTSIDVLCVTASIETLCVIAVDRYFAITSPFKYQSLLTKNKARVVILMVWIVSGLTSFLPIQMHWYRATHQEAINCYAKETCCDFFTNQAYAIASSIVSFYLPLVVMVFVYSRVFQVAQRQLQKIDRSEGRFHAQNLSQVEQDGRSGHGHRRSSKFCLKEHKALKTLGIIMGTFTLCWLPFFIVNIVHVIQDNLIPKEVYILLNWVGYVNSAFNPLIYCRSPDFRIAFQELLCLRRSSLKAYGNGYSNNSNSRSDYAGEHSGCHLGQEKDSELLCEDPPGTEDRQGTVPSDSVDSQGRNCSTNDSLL

| SMILES | ED50 (Male Swiss-Webster mice [1]) [mg/kg] | locomotor stimulant effects, time course (in words) (Male Swiss-Webster mice [1]) | Ki (α1-receptors) [nM] | Ki (α2-receptors) [nM] | IC50 (α2-receptors) [nM] | Stimulation Efficacy (Male Swiss-Webster mice [1]) | Dosage of Enantiomer, Dog: dosage required to raise MAP by 10% [3] [µg/kg] | Dosage of Enantiomer, Rat [4] [µg] | Mean Decrease in Nasal Airway Pressure [5, 7] | Mean Decrease in Nasal Airway Pressure [5, 8] | Mean Decrease in Nasal Airway Pressure [5, 9] | Mean Decrease in Nasal Airway Pressure [5, 10] | Post Drug nasal airway pressure [5, 11] [mm water] | %Change in nasal airway pressure [5, 12] [%] | Post Drug nasal airway pressure ([5]; non-histamine-challenged rats) [mm H2O] | %Change in nasal airway pressure [5, 13] [%] | interaction with triprolidine pretreatment (central nervous system stimulation, horizontal movement) (Male Swiss-Webster mice [2]) | also measured |
| --- | --- | --- | --- | --- | --- | --- | --- | --- | --- | --- | --- | --- | --- | --- | --- | --- | --- | --- |
| CC(N)Cc1ccccc1 (single isomer, unassigned; (+)) [(+)-amphetamine] | 1.3 | dose- and time-dependent increase in the distance traversed |  |  |  |  |  |  |  |  |  |  |  |  |  |  |  |  |
| CC(C)(C)NCC(O)COc1cccc2[nH]c(C#N)c(I)c12 (stereo not shown) [ICYP, iodocyanopindolol] |  |  |  |  |  |  |  |  |  |  |  |  |  |  |  |  |  | Kd (β2-receptors; Saturation Analysis, Run 1): 0.0096 nM; Kd (β2-receptors; Saturation Analysis, Run 2): 0.0093 nM; Kd (β2-receptors; Saturation Analysis, Summary): 0.0095 nM; Kd (β2-receptors; Scatchard Analysis, Run 1): 0.0099 nM; Kd (β2-receptors; Scatchard Analysis, Run 2): 0.0078 nM; Kd (β2-receptors; Scatchard Analysis, Summary): 0.0089 nM |
| Cc1ccc(/C(=C\CN2CCCC2)c2ccccn2)cc1 [triprolidine] |  |  |  |  |  |  |  |  |  |  |  |  |  |  |  |  |  | effect on horizontal distance, triprolidine alone (Male Swiss-Webster mice [2]; 0.25 to 25 mg/kg, injected immediately prior to testing, 2-hour test period): failed to affect horizontal distance; effect on locomotion, triprolidine alone (Male Swiss-Webster mice [2]; 50 and 100 mg/kg, beginning within 10 minutes, lasting 30 to 40 minutes): Dose-dependent depression of locomotion |
| CN[C@H](C)[C@@H](O)c1ccccc1 [(+)-ephedrine] | 84.9 | small increase in locomotor activity | 40000 | […] | […] | 0.25 | […] | 60 | […] | […] | […] | […] | […] | […] | 7 ± 0.9 | […] | No such central nervous system stimulation | effect on normal airway decongestion (in words) [5]: approximately the same efficacious effect on normal airway decongestion |
| Clc1cc(I)cc(Cl)c1NC1=NCCN1 [p-iodoclonidine] |  |  |  |  |  |  |  |  |  |  |  |  |  |  |  |  |  | Kd (α2-receptors; Saturation Analysis, read-out: Kd 1 (high affinity)): 0.15 nM; Kd (α2-receptors; Saturation Analysis, read-out: Kd 2 (high affinity)): 3.01 nM; Kd (α2-receptors; Scatchard Analysis, read-out: Kd 1 (high affinity)): 0.15 nM; Kd (α2-receptors; Scatchard Analysis, read-out: Kd 2 (low affinity)): 0.87 nM |
| CNC[C@H](O)c1cccc(O)c1 [(-)-phenylephrine] |  |  | 3000 |  |  | 0 | 10 | 3 to 5 | -1.6 ± 0.9 | -4.8 ± 0.8 | -12.1 ± 2.3 | -5.2 ± 1.6 | 10.5 ±2.1 | -22.3 ±8.5 | 4 ± 0.2 | -20.3 ± 4.3 |  | IC50 (α1-receptors): 7000 nM |
| CNC[C@H](O)c1ccc(O)c(O)c1 [Epinephrine, epinephrine] |  |  |  |  |  |  |  |  |  |  |  |  |  |  |  |  |  | displacement of bound p-iodoclonidine (α2-receptors; check for binding to imidazoline receptors in the α2-displacement assay): easily displaced all bound p-iodoclonidine |
| CN[C@@H](C)[C@H](O)c1ccccc1 [(-)-ephedrine] | […] | Dose dependent increases in locomotor activity of slower onset and longer duration | 47000 | […] | […] | […] | […] | […] | […] | -2.5 ± 1.5 | […] | […] | 6.4 ±0.6 | -21.8 ±3.5 | 6 ± 0.5 | […] | increased horizontal movement | effect on normal airway decongestion (in words) [5]: approximately the same efficacious effect on normal airway decongestion; increase in blood pressure (in words) [6]: slightly greater (though significant) increase in blood pressure than (+)-ephedrine |
| CN[C@@H](C)[C@@H](O)c1ccccc1 [(+)-pseudoephedrine] | 12.6 | Little or no stimulant effects | […] | […] | […] | […] | […] | 60 | […] | […] | […] | […] | 6.1 ±1.5 | -36.7 ±2.7 | 7 ± 0.9 | […] | increased horizontal movement |  |
| CC(C)(C)NCC(O)COc1cccc2[nH]c(C#N)c([125I])c12 (stereo not shown) [ICYP, iodocyanopindolol] |  |  |  |  |  |  |  |  |  |  |  |  |  |  |  |  |  | Bmax (β2-receptors; Saturation Analysis, Run 1): 149 femtomoles per mg protein; Bmax (β2-receptors; Saturation Analysis, Run 2): 142 femtomoles per mg protein; Bmax (β2-receptors; Saturation Analysis, Summary): 146 femtomoles per mg protein; Bmax (β2-receptors; Scatchard Analysis, Run 1): 150 femtomoles per mg protein; Bmax (β2-receptors; Scatchard Analysis, Run 2): 139 femtomoles per mg protein; Bmax (β2-receptors; Scatchard Analysis, Summary): 145 femtomoles per mg protein |
